# Values of other authors as cited in patent US9920014B2, “Selective inhibition of bacterial topoisomerase I” (THE FLORIDA INTERNATIONAL BOARD OF TRUSTEES MODESTO A. …, priority 2013, dated 2018).
# Target: E. coli DNA topoisomerase I (Escherichia coli, UniProt P06612)
# Settings: reported by Bansal et al. 2012; read-out: E. coli Topo I IC50 (literature value); cited from earlier work
# Sequence of E. coli DNA topoisomerase I (P06612 whole entry): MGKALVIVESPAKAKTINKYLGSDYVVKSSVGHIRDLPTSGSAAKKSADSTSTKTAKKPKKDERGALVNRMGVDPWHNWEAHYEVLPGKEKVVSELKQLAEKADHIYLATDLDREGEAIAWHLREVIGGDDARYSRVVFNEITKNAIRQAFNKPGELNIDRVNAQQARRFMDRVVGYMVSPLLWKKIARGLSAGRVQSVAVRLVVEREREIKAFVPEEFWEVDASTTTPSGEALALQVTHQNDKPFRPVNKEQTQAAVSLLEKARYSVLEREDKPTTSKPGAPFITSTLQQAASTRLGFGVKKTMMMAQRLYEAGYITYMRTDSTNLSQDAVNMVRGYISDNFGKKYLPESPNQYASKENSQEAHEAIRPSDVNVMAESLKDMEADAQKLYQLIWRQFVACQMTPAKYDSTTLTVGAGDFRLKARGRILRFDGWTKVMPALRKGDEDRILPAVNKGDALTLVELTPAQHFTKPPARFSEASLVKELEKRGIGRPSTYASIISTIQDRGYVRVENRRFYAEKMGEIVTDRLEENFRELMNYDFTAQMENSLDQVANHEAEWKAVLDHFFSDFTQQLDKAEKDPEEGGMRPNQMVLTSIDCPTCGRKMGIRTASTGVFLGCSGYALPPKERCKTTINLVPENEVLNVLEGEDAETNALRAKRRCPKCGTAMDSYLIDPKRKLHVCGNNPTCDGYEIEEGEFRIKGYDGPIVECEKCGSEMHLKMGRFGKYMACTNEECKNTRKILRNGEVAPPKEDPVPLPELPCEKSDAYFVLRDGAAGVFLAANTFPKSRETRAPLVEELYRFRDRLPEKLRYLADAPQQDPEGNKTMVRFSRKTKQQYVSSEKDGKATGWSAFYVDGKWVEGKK
compound,measurement,value
COc1ccc(-c2nc3ccc(-c4nc5ccc(N6CCN(C)CC6)cc5[nH]4)cc3[nH]2)cc1OC [DMA],IC50,3.8 µM
